The source made the active and inactive calls. How the calls were made is not given here.

The subject of this data set is CCRIS mutagenicity, Ames/micronucleus/aberration tests. Description: CCRIS mutagenicity studies. As to conditions: Test System: AMES SALMONELLA TYPHIMURIUM
Setting [1] is: Strain/Indicator: TA98, Metabolic Activation: NONE, Method: STANDARD PLATE.
[2] abbreviates: Strain/Indicator: TA100, Metabolic Activation: NONE, Method: STANDARD PLATE.
The mark [3] stands for this setting: Strain/Indicator: TA1537, Metabolic Activation: NONE, Method: STANDARD PLATE.

For the compound `Cc1ccc2nsc(NC(=O)C(Cl)Cl)c2c1`, the mutagenic call runs as follows: under setting [1], “active; positive”; (Strain/Indicator: TA98, Metabolic Activation: S-9, Method: STANDARD PLATE) “active; positive”; under setting [2], “active; positive”; (Strain/Indicator: TA100, Metabolic Activation: S-9, Method: STANDARD PLATE) “active; positive”; (Strain/Indicator: TA1535, Metabolic Activation: NONE, Method: STANDARD PLATE) “inactive; negative”; (Strain/Indicator: TA1535, Metabolic Activation: S-9, Method: STANDARD PLATE) “inactive; negative”. In addition, the mutagenic call under setting [3] was “active; positive” and the mutagenic call (Strain/Indicator: TA1537, Metabolic Activation: S-9, Method: STANDARD PLATE) was “active; positive”.
With `O=[N+]([O-])c1c2ccccc2cc2c3c(ccc12)[C@@H](O)[C@H](O)C=C3`, the mutagenic call under setting [1] was “active; positive” and the mutagenic call under setting [2] is “inactive; negative”.
Take `CC(C)(Br)C(Br)COP(=O)(OCC(Br)C(C)(C)Br)OCC(Br)C(C)(C)Br` (configuration not stated): the mutagenic call is, setting by setting: (Strain/Indicator: TA100, Metabolic Activation: RAT, LIVER, MICROSOMES, PHENOBARBITAL, Method: PREINCUBATION) “inactive; negative”; (Strain/Indicator: TA100, Metabolic Activation: RAT, LIVER, MICROSOMES, Method: PREINCUBATION) “inactive; negative”.
Take `[N-]=[N+]=NC[C@H]1O[C@H](O)[C@@H](O)[C@@H](O)[C@@H]1O`: the mutagenic call by setting is: under setting [1], “inactive; negative”; under setting [2], “active; positive”.
With `Nc1ccc(Cc2ccc(N=O)c(Cl)c2)cc1Cl`, the mutagenic call was “inactive; negative” (Strain/Indicator: TA98, Metabolic Activation: NONE, Method: PREINCUBATION) and “inactive; negative” (Strain/Indicator: TA100, Metabolic Activation: NONE, Method: PREINCUBATION).
Turning to `CN(C)CCNC(=O)c1cccc2c(=O)c3ccccc3oc12`, under setting [3], the mutagenic call was “active; positive”.

The values are drawn from PubChem BioAssay AID1259407 (Chemical Carcinogenesis Research Information System (CCRIS), 2018).
